Assay results taken from patent publication US20050071891A1, “Repressible sterility of animals” (priority 1999, published 2005).

Tests used:
[1] = test system: HoxCG1; experiment: Reversible arrested oyster larval development with tetracycline-responsive plasmid; assay type: in vivo; conditions: 72 hours
Source text: The second Sterile Feral Construct tested for oysters, expresses the tTA under the Drosophila HSP. The tTA then drives expression of red fluorescent protein and double stranded oyster Hox via the TRE. Three separate fragments were ligated together to form this construct. The first fragment was obtained by digestion of pBiT(dHSP)-EGFP, (Seq ID NO:19), with HindIII and NheI followed by gel purification of the appropriate fragment containing the Drosophila HSP promoter. The second fragment was obtained by digesting pBiT(dHSP)-EGFP with NotI and MluI followed by gel purification of the appropriate fragment containing the TRE. The third fragment was obtained by digesting pHSP-oHoxDS/BH with MluI and. SpeI and gel purifying the appropriate fragment containing the 510 bp fragment of the zBMP2 cDNA from sequence 301-810 in the published cDNA sequence (Lee et al., 1998). The fourth fragment was obtained by firstly subcloning into pGEM3zf a KpnI/XbaI fragment containing the coding region of red fluorescent protein (RFP) that was excised from pDsRed1-N1 (Clontech, PT3405-5) vector. The resulting plasmid was then subjected to digestion with HindIII and PspOMI and the appropriate fragment containing the coding region of RFP was then gel purified from this reaction. […]

[2] = test system: HoxCG1 gene; experiment: Arrested development of oyster embryos transfected with hairpin dsRNA plasmid; assay type: in vivo
Protocol: In vivo expression of dsRNA was achieved by transfecting oyster larvae with the pBiT(dHSP)-RFP-oHoxDS/BH plasmid (FIG. 21; SEQ ID NO:20), which contains the heat inducible promoter (PHSP70) from D. melanogaster driving the expression of a hairpin RNA molecule specific to the HoxCG1 gene. The construct was prepared as follows. SEQ ID NO:23 (AGAL ref #: NM99/09101) was used as a template to generate a PCR fragment using the following primers: […]
Oyster sperm were transfected with the DNA using electroporation, and oocytes were fertilized and larvae allowed to develop for 96 hours. Embryos were heat shocked for one hour at 3 hours post fertilization to induce transcription of the dsRNAs.

[3] = test system: Pacific oyster larvae; experiment: Electroporation of oyster sperm, GUS as reporter gene; assay type: in vivo, Crassostrea gigas
Protocol: Mature oysters (Crassostrea gigas) were obtained from local hatcheries in Tasmania and New South Wales, and held in artificial seawater at 10° C. until required. Eggs were collected from 2-3 females by stripping the gonads and were pooled, rinsed on a 20 μm mesh, and left to condition in artificial sea water for 2 h. Sperm were stripped from male gonads, diluted to approximately 10,000 gametes/μl, and used immediately for electroporation-mediated nucleic acid delivery. Plasmid DNA (50 μg/ml) or double-stranded RNA (dsRNA; 1 μg/ml) was delivered into 1×10^6 sperm using a BioRad Gene Pulser II electroporator in 0.2 cm gap electroporation cuvettes. Sperm were subjected to a single electroporation pulse (50 V, 100% modulation, 10 kHz, 12.5 msec) and immediately mixed with 5000 oocytes. Fertilized embryos and developing larvae were reared at 20° C. in artificial seawater containing 0.1 μg/ml chloramphenicol. Surviving larvae were counted after 24 h development. For experiments in which the Drosophila melanogaster heat shock promoter was used to drive expression of the delivered genes, a 1 h heat shock at 37° C. was provided either at 2 h or 18 h post fertilization, and development was then permitted to proceed at 20° C.
Transfection efficiencies were also assessed in a second set of experiments that examined delivery of pHSP-GUS construct (SEQ ID NO:21). The pHSP-GUS construct was made in a two step fashion. First, the D. melanogaster heat shock promoter and terminator were isolated from the pCaSpeR-hs plasmid (Thummel and Pirrotta, 1992, Drosophila Information Service 71: 150) by PCR using the two primers: […]
GUS activity in these experiments was measured using a fluorometric assay as previously described (Jefferson, R A 1987).

[4] = test system: goosecoid; experiment: Cotransfection of blocker plasmids with pSFM 6 (goosecoid fused to RFP) in P19-pSFM 7 cells; assay type: cell-based, mouse; conditions: transiently cotransfected with pSFM 6
Protocol: (§1) Fluorescent and transmitted light images were acquired using a CCD camera with a microscope. […] The luminescence assays were conducted by using a dark 96 well plate was done by Victor2 from Wallac or by Topcount NXT from Can berra Packard.
The first stage for testing blocker constructs is to set up an appropriate cell system to detect expression of reporter constructs. Initially, either pdsRED-N1 (CMV promoter RFP), pSFM 6 (CMV promoter goosecoid cDNA fused to RFP) or pSFM 24 (TRE EGFP) were transfected into P19-pSFM 7 cells to test the expression patterns of the EGFP, RFP and goosecoid-fused to RFP proteins (FIG. 37). […] In these cases, RFP expression fused to goosecid in the nucleus is expected to be inhibited in the presence of an appropriate blocker.
In order to assess various antisense and dsRNA blockers, pSFM 6 (CMV promoter goosecoid fused to RFP) was transiently cotransfected into the P19-pSFM 7 (Goosecoid promoter TET/OFF) cells along with either pSFM 5 (TRE promoter dsRNA goosecoid), pSFM 8, (CMV promoter antisense goosecoid), pSFM 9 (TRE promoter antisense goosecoid) or pSFM 24 (TRE promoter EGFP). […] There are several potential reasons for the absence of RNA blocker effects. First, antisense and dsRNA blockers may not be expressed at levels high enough to effectively interfere with the target mRNA molecules. Secondly, there may be cellular mechanisms in mammals that recognize and interfere with such constructs. Thirdly, the RNA inhibitory molecules may not be able to access and block the RNA target.

[5] = test system: P19-pSFM 7 cells; experiment: Luciferase activity of reporter plasmids transiently transfected in P19-pSFM 7 cells; assay type: cell-based, mouse; conditions: for luciferase activity, Fold: relative to pSFM 21; for luciferase activity, Average: transient transfection
Source text: Reporter plasmids pSFM 20 (goosecoid promoter luciferase+), pSFM 21 (promoterless luciferase+), pSFM 23 (CMV promoter luciferase+) and pSFM 25 (TRE luciferase+) were transiently transfected into either P19 or P19-pSFM 7 (Goosecoid TET/OFF) cells to test the effectiveness of the TET-OFF genetic switch driven by goosecoid promoter.

[6] = test system: P19 cells; experiment: Luciferase activity of reporter constructs transiently transfected in P19 cells; assay type: cell-based, mouse; conditions: for luciferase activity compared to the promoterless construct (pSFM 21) / luciferase activity, Average / luciferase activity, Fold: P19 cells; for luciferase activity compared to the promoterless construct (pSFM 21): transient; for luciferase activity, Average: transient transfection; for luciferase activity, Fold: relative to pSFM 21
Protocol: For transient transfection assays, P19 cells were cultured on gelatinized dishes in DMEM supplemented with 10% fetal bovine serum. Cells (0.3 million per well in 6-well cluster plates) were transfected with 5 μg reporter plasmid using transfection reagent ‘Geneporter’ from Gene Therapy Systems according manufacturer's recommendation.
as §1
P19 cells were transiently transfected in 6 well plates with pSFM 20 (goosecoid promoter-luciferase), pSFM 21 (promoterless luciferase) and pSFM 23 (CMV promoter-luciferase) using Gene Porter. Cells were harvested at various times post-tranfection and assayed for luciferase activity using a Promega kit (Cat. # E1501) in a Top Count NXT luminometer. […]

[7] = test system: P19-pSFM 7 cells; experiment: Luciferase activity of pSFM 25 in P19 clones stably integrated with pSFM 7; assay type: cell-based, mouse
Protocol: Stably integrated P19 clones were obtained by using BioRad Gene Pulser II electroporation system. 30 μg DNA electroporated into 10 million cells under following conditions 960 μF and 0.16 kV in a 0.4 cm cuvette (0.4 kV/cm). The next day normal media were replaced with appropriate selection media (300 μg/ml G418).
Selection of a P19 cell line stably integrated with a goosecoid-dependent TET-OFF transactivator P19 cells were electroporated with pSFM 7 (Goosecoid promoter-TET/OFF) linearised with ApaLI and selected for stable integration.
Table 20 showes the luciferase activities of pSFM 25 (TRE luciferase+) shown in counts per second (cps) of transiently transfected in P19-pSFM 7 cells.
Addition of doxycycline at 1 μg/ml reduced luciferase activity from pSFM 25 in this clone by 90 fold. This clone, containing stably integrated pSFM 7 was therefore designated P19-pSFM 7 and used for further testing.

Substance | intensity or number of cells expressing RFP in the nucleus [4] | luciferase activity, Fold [5] | luciferase activity, Average [5] | luciferase activity ([6]; 24 hours post-transfection) [cps] | luciferase activity ([6]; 48 hours post-transfection) [cps] | luciferase activity ([6]; 72 hours post-transfection) [cps] | luciferase activity, Average [6] | luciferase activity, Fold [6] | further results
pHSP-GUS: expresses GUS under the control of the D. melanogaster heat shock promoter (SEQ ID NO:21) | – | – | – | – | – | – | – | – | % arrested development ([1]; No doxycycline): 5 ± 3%; % arrested development ([1]; With doxycycline (5 μg/μl)): 4 ± 3%; % arrested development ([2]; no heat shock): 6 ± 2%; % arrested development ([2]; with heat shock (one hour at 3 hours post fertilization)): 8 ± 3%; GUS activity ([3]; electroporation, heat shock): 83.2 ± 5.4 fluorescence units/μg protein; GUS activity relative to controls ([3]; electroporation, heat shock): 19.8; GUS activity ([3]; electroporation, no heat shock): 10.5 ± 0.5 fluorescence units/μg protein; GUS activity relative to controls ([3]; electroporation, no heat shock): 2.5; GUS activity ([3]; no electroporation, heat shock): 4.5 ± 0.5 fluorescence units/μg protein; GUS activity relative to controls ([3]; no electroporation, heat shock): 1.1
pSFM 5: Tet-responsive expression vector pTRE-goosecoid double strand RNA | significant difference could not be detected | – | – | – | – | – | – | – | –
pSFM 8: pCMV promoter expressing goosecoid antisense RNA | significant difference could not be detected | – | – | – | – | – | – | – | –
pSFM 9: Tet-responsive expression vector pTRE-goosecoid antisense RNA | significant difference could not be detected | – | – | – | – | – | – | – | –
pSFM 20: goosecoid promoter expressing luciferase+ protein | – | 6 | 365 | 1263 | 3707 | 1692 | 610 | 5 | luciferase activity compared to the promoterless construct (pSFM 21) [6]: 6 fold
pSFM 21: promoterless luciferase+ | – | 1 | 60 | 254 | 604 | 252 | 121 | 1 | –
pSFM 23: pCMV promoter expressing luciferase+ | – | 267 | 16031 | 78778 | 145403 | 49936 | 44491 | 367 | luciferase activity compared to the promoterless construct (pSFM 21) [6]: 200-300 fold
pSFM 25: Tet-responsive expression vector pTRE-luciferase+ | – | 6 | 368 | – | – | – | 183 | 1.5 | luciferase activity ([7]; clone 9, with doxycycline): 54858 cps; luciferase activity ([7]; clone 9, without doxycycline): 582529 cps; luciferase activity ([7]; clone 12, with doxycycline): 4396 cps; luciferase activity ([7]; clone 12, without doxycycline): 417268 cps; luciferase activity ([7]; clone 29, with doxycycline): 48260 cps; luciferase activity ([7]; clone 29, without doxycycline): 616604 cps; luciferase activity ([7]; clone 32, with doxycycline): 19548 cps; luciferase activity ([7]; clone 32, without doxycycline): 272888 cps; luciferase activity ([7]; clone 46, with doxycycline): 8013 cps; luciferase activity ([7]; clone 46, without doxycycline): 703470 cps
